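A five-concentration, 48-hour dose response in 96-well plates underlies each endpoint, interpolated linearly between surrounding concentrations. Abbreviation: GI50, concentration required for 50% inhibition of growth.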 Active and inactive are the calls of the source. Cut-off read from the data, not from the text of the source: active = GI50 up to about 1.1 µM and inactive = higher.
Tests used:
Assay in all cases: DTP human tumour cell line panel, 48 h
786-0 = tested on: 786-0
ACHN = tested on: ACHN
CAKI-1 = tested on: CAKI-1
COLO 205 = tested on: COLO 205
DU-145 = tested on: DU-145
EKVX = tested on: EKVX
Hs-578T = tested on: Hs-578T
KM12 = tested on: KM12
Malme-3M = tested on: Malme-3M
NCI-H226 = tested on: NCI-H226
NCI-H23 = tested on: NCI-H23
OVCAR-5 = tested on: OVCAR-5
RPMI-8226 = tested on: RPMI-8226
SK-MEL-2 = tested on: SK-MEL-2
SNB-75 = tested on: SNB-75
UACC-257 = tested on: UACC-257
LOX IMVI = tested on: LOX IMVI
SF-539 = tested on: SF-539

Measured: GI50

CCC(=O)N1C(=O)C(CC)(CC)C(=O)N1C(=O)CC
inactive: 786-0 > 100 µM | ACHN > 100 µM | CAKI-1 > 100 µM | COLO 205 > 100 µM | DU-145 > 100 µM | EKVX > 100 µM | Hs-578T > 100 µM | KM12 > 100 µM | Malme-3M > 100 µM | NCI-H226 > 100 µM | NCI-H23 > 100 µM | OVCAR-5 > 100 µM | RPMI-8226 > 100 µM | SK-MEL-2 > 100 µM | SNB-75 > 100 µM | UACC-257 > 100 µM

Cc1cccc(C)c1NC(=O)C(Cc1c[nH]c2ccccc12)NC(=O)OCc1ccccc1 (configuration not stated)
inactive: 786-0 20.1 µM | ACHN 19.8 µM | CAKI-1 16.9 µM | COLO 205 13.2 µM | DU-145 17 µM | EKVX 15.2 µM | Hs-578T 33.1 µM | KM12 19.6 µM | LOX IMVI 19.5 µM | Malme-3M 20.1 µM | NCI-H23 24 µM | OVCAR-5 18.8 µM | RPMI-8226 15.6 µM | SF-539 20.2 µM | SK-MEL-2 16.9 µM | SNB-75 18.7 µM | UACC-257 14.5 µM

Cc1ccc(NC(=O)CC(=O)N2N=C(N(c3ccccc3)c3ccccc3)CC2c2ccccc2)cc1 (configuration not stated)
inactive: 786-0 > 100 µM | ACHN > 100 µM | CAKI-1 > 100 µM | COLO 205 > 100 µM | DU-145 > 100 µM | EKVX > 100 µM | Hs-578T 31.6 µM | KM12 > 100 µM | NCI-H226 > 100 µM | NCI-H23 > 100 µM | OVCAR-5 > 100 µM | RPMI-8226 > 100 µM | SF-539 > 100 µM | SK-MEL-2 > 100 µM | SNB-75 91.4 µM | UACC-257 > 100 µM

Cc1cccc(/C=C2/C(=O)Nc3ccccc32)n1
inactive: 786-0 13 µM | ACHN 10.3 µM | CAKI-1 11.9 µM | COLO 205 19.9 µM | DU-145 13.2 µM | EKVX 16.8 µM | Hs-578T 24.2 µM | KM12 13.2 µM | Malme-3M 16.3 µM | NCI-H23 10.4 µM | OVCAR-5 11.9 µM | RPMI-8226 14.7 µM | SF-539 20.5 µM | SK-MEL-2 12.8 µM | SNB-75 28.8 µM

COCCn1cnc2c(Cl)nc(Nc3ccccc3)nc21
inactive: 786-0 69.2 µM | ACHN 17.9 µM | COLO 205 76.2 µM | DU-145 > 100 µM | EKVX 21.3 µM | Hs-578T 24.1 µM | KM12 > 100 µM | LOX IMVI 17 µM | Malme-3M > 10 µM | NCI-H226 > 100 µM | NCI-H23 33.3 µM | OVCAR-5 > 100 µM | RPMI-8226 86.9 µM | SF-539 > 100 µM | SK-MEL-2 17.7 µM | SNB-75 68.5 µM | UACC-257 36.7 µM

C/C=C1/CN2CCC34c5ccccc5N(C)C23C2CC1C4(C(=O)OC)C(O)O2 (configuration not stated)
inactive: 786-0 > 100 µM | ACHN > 100 µM | CAKI-1 > 100 µM | COLO 205 > 100 µM | DU-145 > 100 µM | EKVX > 100 µM | Hs-578T > 100 µM | KM12 > 100 µM | LOX IMVI > 100 µM | NCI-H226 > 100 µM | NCI-H23 > 100 µM | OVCAR-5 > 100 µM | RPMI-8226 > 100 µM | SF-539 > 100 µM | SK-MEL-2 > 100 µM | SNB-75 > 100 µM | UACC-257 > 100 µM

O=C(O)C1CCCCC1c1c2ccc(=O)c(O)c-2oc2c(O)c(O)ccc12 (configuration not stated)
inactive: 786-0 19.3 µM | ACHN 14 µM | CAKI-1 65.6 µM | COLO 205 > 100 µM | DU-145 52.1 µM | EKVX 38.1 µM | Hs-578T 4.44 µM | KM12 35.2 µM | LOX IMVI 13.8 µM | Malme-3M 95.7 µM | NCI-H226 12.1 µM | OVCAR-5 > 100 µM | RPMI-8226 29.9 µM | SK-MEL-2 > 100 µM | SNB-75 28.3 µM | UACC-257 > 100 µM

CCCCSC1=N/C(=C\c2ccco2)C(Cl)=N1
inactive: 786-0 > 100 µM | ACHN > 100 µM | CAKI-1 > 100 µM | COLO 205 > 100 µM | DU-145 > 100 µM | EKVX > 100 µM | Hs-578T > 100 µM | KM12 > 100 µM | Malme-3M > 100 µM | NCI-H226 > 100 µM | NCI-H23 > 100 µM | OVCAR-5 > 100 µM | RPMI-8226 > 100 µM | SK-MEL-2 > 100 µM | SNB-75 > 100 µM | UACC-257 > 100 µM

CC12CCCC3(CC(=O)C(C)(C)C3C(=O)C1)C2 (configuration not stated)
inactive: 786-0 > 100 µM | ACHN > 100 µM | CAKI-1 > 100 µM | COLO 205 > 100 µM | DU-145 > 100 µM | EKVX > 100 µM | Hs-578T > 100 µM | KM12 > 100 µM | LOX IMVI > 100 µM | Malme-3M > 100 µM | NCI-H226 > 100 µM | NCI-H23 > 100 µM | OVCAR-5 > 100 µM | RPMI-8226 > 100 µM | SK-MEL-2 > 100 µM | SNB-75 > 100 µM | UACC-257 > 100 µM

O=C(O)CCC(NC(=O)c1ccc(Oc2nc3ccccc3nc2C(=O)O)cc1)C(=O)O (configuration not stated)
inactive: 786-0 > 100 µM | ACHN > 100 µM | CAKI-1 > 100 µM | COLO 205 > 100 µM | DU-145 > 100 µM | EKVX > 100 µM | Hs-578T > 100 µM | KM12 > 100 µM | LOX IMVI > 100 µM | Malme-3M > 100 µM | NCI-H226 > 100 µM | NCI-H23 > 100 µM | OVCAR-5 > 100 µM | RPMI-8226 > 100 µM | SK-MEL-2 > 100 µM | SNB-75 > 100 µM | UACC-257 > 100 µM

S=C(S)N1CCN(c2cccc(Cl)c2)CC1
inactive: 786-0 73.1 µM | ACHN > 100 µM | CAKI-1 42.1 µM | COLO 205 76.4 µM | DU-145 > 100 µM | EKVX > 100 µM | Hs-578T > 100 µM | KM12 75.3 µM | LOX IMVI 36.7 µM | Malme-3M > 100 µM | NCI-H23 > 100 µM | OVCAR-5 > 100 µM | RPMI-8226 47.4 µM | SF-539 > 100 µM | SK-MEL-2 85.5 µM | SNB-75 69.3 µM | UACC-257 85.1 µM

Cc1ccc(/N=N/c2c(C)c(C#N)c(=S)n(C3OC(CO)C(O)C(O)C3O)c2-c2ccccc2)cc1 (configuration not stated)
inactive: 786-0 21 µM | ACHN 30.7 µM | CAKI-1 25.7 µM | COLO 205 25.1 µM | DU-145 38.6 µM | Hs-578T 24.5 µM | KM12 19 µM | LOX IMVI 17.2 µM | Malme-3M 24.9 µM | NCI-H23 16.5 µM | OVCAR-5 28.9 µM | RPMI-8226 28.9 µM | SF-539 28.5 µM | SK-MEL-2 19.5 µM | SNB-75 20.1 µM | UACC-257 28.1 µM

From ChEMBL document CHEMBL1201862, “PubChem BioAssay data set” (2004)
